Results taken from patent publication US5888494A, “Film-forming compositions of antihyperalgesic opiates and method of treating hyperalgesic and pruritic conditions therewith” (priority 1997, dated 1999).
Counter-ions that a name gives are not always drawn.

Columns and labels:
[1] = tested on: Compound 48/80-induced scratching; experiment: mouse scratch model: antagonism of Compound 48/80-induced scratching (anti-pruritic activity); type: in vivo, male Swiss albino mice; conditions: sc, 0.5 h, Compound 48/80 challenge, 30 min observation
Method: Testing was performed in a mouse scratch model under blind conditions.
Groups of 8-10 male Swiss albino mice (Hilltop Lab Animals, Inc., Scottsdale, Pa.), weighing […], were used in the testing. They were housed under controlled temperature of 23°-25° C. Food and water were freely available. Before the experiments, the mice were weighted, put into individual boxes and allowed to acclimate for 30 min.
Vehicle used to dissolve the test compounds: 20% w/w cremafor EL.
The compounds to be tested for anti-pruritic activity were dissolved in the vehicle of 20% w/w cremafor EL.
100 μl of the vehicle (3-5 doses, n=8-10) was injected s.c. into the back of the neck of mice 20 min. before challenging them with 100 μl of Compound 48/80 (2 mg/ml; […]) injected s.c. into the back of the neck.
To each mouse of a group of 8-10 mice previously subjected to the standard challenge various doses of the compounds, to be tested for anti-pruritic activity, were administered s.c. into the back of the neck.
For each group of 8-10 mice, the mean values for scratching were no to relative % antagonism of scratching and then plotted vs. dose of test compounds. Interval estimates of mean A50 were determined by nonlinear regression analysis (Kaleida Graph) and mean % inhibition of scratching was calculated.

[2] = in vivo; hydrochloride; cited from earlier work
[3] = in vivo, iv; cited from earlier work

Compound	inhibition at 2.5 mg/kg [1] [%]	inhibition at 5 mg/kg [1] [%]	also measured
O=C(O)C1(c2ccccc2)CCN(CCC(c2ccccc2)(c2ccccc2)c2ccccn2)CC1 [(1), 1-[3,3-diphenyl-3-(2-pyridyl)propyl]-4-phenyl-4-piperidinecarboxylic acid hydrochloride]	32	65	inhibition at 10 mg/kg ([1]; 10.0 mg/kg): 83%
OC1(Cc2ccc(Cl)cc2)CCN(CCC(c2ccccc2)(c2ccccc2)c2ccccc2)CC1 [(2), 1-(3,3,3-triphenylpropyl)-4-hydroxy-4-p-chlorobenzylpiperidine]	68	94	inhibition at 1 mg/kg ([1]; 1.0 mg/kg): 35%
CN(C)C(=O)C(CCN1CCC(O)(c2ccc(Cl)cc2)CC1)(c1ccccc1)c1ccccc1 [Loperamide HCl, 4-(p-chlorophenyl)-4-hydroxy-N-N-dimethyl-α,α-diphenyl-1-piperidinebutyramide hydrochloride]	–	–	CNS effects [2]: completely free of the undesirable CNS effects
CN1CC[C@]23c4c5ccc(O)c4O[C@H]2[C@@H](O)C=C[C@H]3[C@H]1C5 [morphine]	–	–	general itching, incidence [3]: about 1 % of patients
